In ChEMBL document CHEMBL3232739, “Discovery of a potent and dissociated non-steroidal glucocorticoid receptor agonist containing an alkyl carbinol pharmacophore” (Bioorg Med Chem Lett, 2014):

Tests used:
[1] = tested on: Mus musculus; assay: Toxicity in po dosed B10.RIII mouse assessed as triglyceride level in serum administered po qd for 5 weeks relative to control; format: organism-based; conditions: in vivo, 840 h
[2] = biological target: T1, Mineralocorticoid receptor (Homo sapiens, UniProt P08235); assay: Displacement of TAMRA-labeled dexamethasone from mineralocorticoid receptor (unknown origin) by fluorescence polarization assay
T1 sequence (P08235 whole entry): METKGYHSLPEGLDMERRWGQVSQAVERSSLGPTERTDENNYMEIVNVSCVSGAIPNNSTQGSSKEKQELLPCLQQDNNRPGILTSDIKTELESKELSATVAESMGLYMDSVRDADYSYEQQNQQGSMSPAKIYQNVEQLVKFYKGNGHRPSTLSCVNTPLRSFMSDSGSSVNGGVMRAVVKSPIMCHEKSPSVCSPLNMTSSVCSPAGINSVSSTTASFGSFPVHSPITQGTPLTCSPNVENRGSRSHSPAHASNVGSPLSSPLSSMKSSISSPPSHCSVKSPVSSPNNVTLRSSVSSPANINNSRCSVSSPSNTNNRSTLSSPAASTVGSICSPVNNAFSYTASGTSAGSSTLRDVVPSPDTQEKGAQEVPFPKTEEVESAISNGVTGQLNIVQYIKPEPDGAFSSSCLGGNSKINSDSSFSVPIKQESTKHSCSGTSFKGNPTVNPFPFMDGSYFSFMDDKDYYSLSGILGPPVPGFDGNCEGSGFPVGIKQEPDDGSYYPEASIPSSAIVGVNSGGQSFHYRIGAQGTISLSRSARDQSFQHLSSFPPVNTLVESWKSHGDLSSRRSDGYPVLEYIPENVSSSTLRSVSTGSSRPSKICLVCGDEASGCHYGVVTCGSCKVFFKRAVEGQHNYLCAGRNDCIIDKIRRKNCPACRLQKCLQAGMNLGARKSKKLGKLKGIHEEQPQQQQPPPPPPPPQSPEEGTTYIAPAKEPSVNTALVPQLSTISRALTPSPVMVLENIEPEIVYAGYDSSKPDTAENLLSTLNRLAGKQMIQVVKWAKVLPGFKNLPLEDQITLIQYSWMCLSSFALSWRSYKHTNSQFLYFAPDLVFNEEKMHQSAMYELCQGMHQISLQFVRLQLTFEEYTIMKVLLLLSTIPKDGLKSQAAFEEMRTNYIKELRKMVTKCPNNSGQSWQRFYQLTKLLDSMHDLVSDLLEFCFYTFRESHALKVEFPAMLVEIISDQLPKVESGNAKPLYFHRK

[3] = Permeability across apical to basolateral side in human Caco2 cells; format: ADME, cell-based; conditions: Caco-2, read-out: permeability
[4] = AUC (infinity) in Sprague-Dawley rat at 30 mg/kg, po; format: ADME, organism-based; design: time infinity, dose 30 mg/kg, route oral; conditions: plasma
[5] = species on record: Homo sapiens; assay: Selectivity ratio of IC50 for mineralocorticoid receptor (unknown origin) to IC50 for glucocorticoid receptor (unknown origin)
[6] = biological target: T2, Progesterone receptor (Homo sapiens, UniProt P06401); assay: Displacement of TAMRA-labeled mifepristone from progesterone receptor (unknown origin) by fluorescence polarization assay
T2 sequence (P06401 whole entry): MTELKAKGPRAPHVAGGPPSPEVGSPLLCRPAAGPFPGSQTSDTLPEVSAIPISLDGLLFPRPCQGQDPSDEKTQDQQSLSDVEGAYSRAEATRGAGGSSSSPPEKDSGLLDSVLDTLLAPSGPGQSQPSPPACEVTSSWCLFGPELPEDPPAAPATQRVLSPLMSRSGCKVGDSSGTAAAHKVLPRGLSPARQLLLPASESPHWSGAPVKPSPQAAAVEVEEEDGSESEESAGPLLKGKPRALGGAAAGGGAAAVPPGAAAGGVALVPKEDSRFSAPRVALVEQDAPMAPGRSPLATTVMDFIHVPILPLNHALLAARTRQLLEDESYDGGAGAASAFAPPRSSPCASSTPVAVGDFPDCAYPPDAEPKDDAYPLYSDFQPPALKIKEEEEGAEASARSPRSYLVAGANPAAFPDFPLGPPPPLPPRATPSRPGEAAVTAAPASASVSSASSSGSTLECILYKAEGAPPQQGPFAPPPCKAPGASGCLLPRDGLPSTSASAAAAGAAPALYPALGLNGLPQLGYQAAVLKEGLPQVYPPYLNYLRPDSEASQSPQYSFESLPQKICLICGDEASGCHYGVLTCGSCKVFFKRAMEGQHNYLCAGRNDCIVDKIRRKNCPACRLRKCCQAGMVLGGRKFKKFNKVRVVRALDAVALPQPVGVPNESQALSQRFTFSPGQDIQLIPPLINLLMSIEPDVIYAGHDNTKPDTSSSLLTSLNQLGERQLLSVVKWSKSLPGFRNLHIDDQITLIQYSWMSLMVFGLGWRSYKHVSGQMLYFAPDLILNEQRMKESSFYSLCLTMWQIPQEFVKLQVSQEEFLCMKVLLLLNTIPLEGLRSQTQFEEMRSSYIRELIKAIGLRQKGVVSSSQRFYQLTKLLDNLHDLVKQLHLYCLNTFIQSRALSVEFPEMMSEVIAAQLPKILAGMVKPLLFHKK

[7] = Permeability across basolateral to apical side in human Caco2 cells; format: ADME, cell-based; conditions: Caco-2, read-out: permeability
[8] = Clearance in Sprague-Dawley rat at 2 mg/kg, iv; format: ADME, organism-based; design: dose 2 mg/kg, route intravenous; conditions: in vivo

## Cc1ccc(F)cc1C(C)(C)C[C@@](O)(Cc1cc2cnccc2[nH]1)C(C)(C)C
[1]
  Activity: Dose-dependent effect
[2]
  IC50: 420 nM
[3]
  Papp A→B: 13.4 ×10⁻⁶ cm/s
[4]
  AUC(0-inf): 6730 ng·h/mL
[5]
  Ratio IC50: > 100
[6]
  IC50: 290 nM
[7]
  Papp B→A: 16.9 ×10⁻⁶ cm/s
[8]
  clearance: 48 mL/min/kg
